Tested on: post viral cough
Test: Informal single-subject study of post viral cough exacerbation
Conditions: self-administration, subjective

With `COc1ccc2c3c1O[C@H]1[C@@H](O)C=C[C@H]4[C@@H](C2)N(C)CC[C@@]341` [codeine] the subject-reported relief was “dramatic relief”.

— US20230218661A1, “ISOTONIC OR HYPERTONIC SALT-BASED COMPOSITIONS, TREATMENTS, DEVICES, AND ARTICLES FOR DELIVERY OF SAME TO LARYNX” (SENSORY CLOUD, INC., priority 2022, published 2023)
